Data on eleven compounds can be found in patent publication US20090181963A1, “3H-[1,2,3]TRIAZOLO[4,5-D]PYRIMIDINE COMPOUNDS, THEIR USE AS mTOR KINASE AND PI3 KINASE INHIBITORS, AND THEIR [sequence]” (Wyeth, priority 2008, published 2009).

One experiment concerns the target PI3 Kinase α (Homo sapiens, UniProt P42336). Description: Fluorescence polarization assay for PI3K (PI3 Kinase α). The class given is biochemical. The following applies: diC8-PI(4,5)P2 substrate, 25 μM ATP, one hour at 25° C.
A further experiment has as its target PI3 Kinase γ (Homo sapiens, UniProt P48736). Nature of the experiment: Fluorescence polarization assay for PI3K (PI3 Kinase γ). The format is biochemical. As to conditions: diC8-PI(4,5)P2 substrate, 25 μM ATP, one hour at 25° C.

PI3 Kinase γ, sequence (P48736 whole entry): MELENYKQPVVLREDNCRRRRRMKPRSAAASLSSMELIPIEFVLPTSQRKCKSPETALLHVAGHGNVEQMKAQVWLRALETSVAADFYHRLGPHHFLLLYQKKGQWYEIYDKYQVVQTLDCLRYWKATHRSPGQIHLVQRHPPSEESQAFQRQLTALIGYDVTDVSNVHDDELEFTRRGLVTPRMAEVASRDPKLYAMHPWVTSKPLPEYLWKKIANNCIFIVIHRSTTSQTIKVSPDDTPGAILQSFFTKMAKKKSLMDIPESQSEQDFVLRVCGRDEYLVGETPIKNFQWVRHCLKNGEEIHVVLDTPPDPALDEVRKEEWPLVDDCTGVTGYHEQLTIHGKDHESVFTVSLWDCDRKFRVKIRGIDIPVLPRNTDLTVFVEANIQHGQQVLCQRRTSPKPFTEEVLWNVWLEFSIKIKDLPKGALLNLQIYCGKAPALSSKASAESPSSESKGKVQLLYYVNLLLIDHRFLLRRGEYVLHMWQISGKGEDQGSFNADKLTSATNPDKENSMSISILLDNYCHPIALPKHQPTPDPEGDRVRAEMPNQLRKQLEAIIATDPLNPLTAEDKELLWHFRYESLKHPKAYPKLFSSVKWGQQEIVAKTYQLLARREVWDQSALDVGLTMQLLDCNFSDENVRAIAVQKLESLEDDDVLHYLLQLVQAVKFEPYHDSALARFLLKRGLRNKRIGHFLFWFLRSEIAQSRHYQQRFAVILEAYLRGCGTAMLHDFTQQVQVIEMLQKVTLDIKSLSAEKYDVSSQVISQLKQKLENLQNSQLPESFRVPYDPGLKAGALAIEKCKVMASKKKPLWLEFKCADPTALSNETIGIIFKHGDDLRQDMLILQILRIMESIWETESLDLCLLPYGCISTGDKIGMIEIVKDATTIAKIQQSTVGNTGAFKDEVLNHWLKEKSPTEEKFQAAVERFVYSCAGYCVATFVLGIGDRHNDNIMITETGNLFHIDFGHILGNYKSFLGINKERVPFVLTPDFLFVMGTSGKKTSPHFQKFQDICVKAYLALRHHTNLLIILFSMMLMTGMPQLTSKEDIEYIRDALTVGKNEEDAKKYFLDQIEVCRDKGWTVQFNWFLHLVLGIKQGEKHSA
PI3 Kinase α, sequence (P42336 whole entry): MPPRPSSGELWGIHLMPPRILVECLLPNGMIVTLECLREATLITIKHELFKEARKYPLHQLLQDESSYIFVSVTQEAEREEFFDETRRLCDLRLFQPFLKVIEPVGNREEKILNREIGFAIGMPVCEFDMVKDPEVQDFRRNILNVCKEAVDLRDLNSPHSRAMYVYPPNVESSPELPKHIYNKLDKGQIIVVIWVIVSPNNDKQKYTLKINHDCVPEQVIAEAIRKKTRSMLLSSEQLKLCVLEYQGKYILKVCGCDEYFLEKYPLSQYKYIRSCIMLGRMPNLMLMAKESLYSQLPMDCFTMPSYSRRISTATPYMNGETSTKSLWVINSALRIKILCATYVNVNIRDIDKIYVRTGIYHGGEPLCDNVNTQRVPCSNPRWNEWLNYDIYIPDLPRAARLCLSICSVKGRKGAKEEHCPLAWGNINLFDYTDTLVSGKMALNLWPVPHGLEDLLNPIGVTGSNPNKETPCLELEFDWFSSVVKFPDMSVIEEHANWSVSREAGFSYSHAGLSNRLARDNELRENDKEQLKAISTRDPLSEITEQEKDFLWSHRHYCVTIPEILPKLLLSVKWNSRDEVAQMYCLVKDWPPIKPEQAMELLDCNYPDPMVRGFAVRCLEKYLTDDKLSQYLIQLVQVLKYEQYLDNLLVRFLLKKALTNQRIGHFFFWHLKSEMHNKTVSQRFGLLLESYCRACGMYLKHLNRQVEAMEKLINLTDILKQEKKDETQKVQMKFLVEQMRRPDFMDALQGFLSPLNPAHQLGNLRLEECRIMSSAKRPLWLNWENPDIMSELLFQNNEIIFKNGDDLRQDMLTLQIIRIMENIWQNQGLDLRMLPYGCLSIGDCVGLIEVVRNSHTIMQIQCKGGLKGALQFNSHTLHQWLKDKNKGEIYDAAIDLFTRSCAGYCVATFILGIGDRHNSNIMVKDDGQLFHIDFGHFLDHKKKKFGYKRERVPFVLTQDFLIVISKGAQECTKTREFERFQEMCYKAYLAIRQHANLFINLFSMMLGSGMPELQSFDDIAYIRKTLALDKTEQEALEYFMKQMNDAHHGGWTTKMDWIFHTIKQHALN
PI3 Kinase α, sequence (P27986 whole entry partner): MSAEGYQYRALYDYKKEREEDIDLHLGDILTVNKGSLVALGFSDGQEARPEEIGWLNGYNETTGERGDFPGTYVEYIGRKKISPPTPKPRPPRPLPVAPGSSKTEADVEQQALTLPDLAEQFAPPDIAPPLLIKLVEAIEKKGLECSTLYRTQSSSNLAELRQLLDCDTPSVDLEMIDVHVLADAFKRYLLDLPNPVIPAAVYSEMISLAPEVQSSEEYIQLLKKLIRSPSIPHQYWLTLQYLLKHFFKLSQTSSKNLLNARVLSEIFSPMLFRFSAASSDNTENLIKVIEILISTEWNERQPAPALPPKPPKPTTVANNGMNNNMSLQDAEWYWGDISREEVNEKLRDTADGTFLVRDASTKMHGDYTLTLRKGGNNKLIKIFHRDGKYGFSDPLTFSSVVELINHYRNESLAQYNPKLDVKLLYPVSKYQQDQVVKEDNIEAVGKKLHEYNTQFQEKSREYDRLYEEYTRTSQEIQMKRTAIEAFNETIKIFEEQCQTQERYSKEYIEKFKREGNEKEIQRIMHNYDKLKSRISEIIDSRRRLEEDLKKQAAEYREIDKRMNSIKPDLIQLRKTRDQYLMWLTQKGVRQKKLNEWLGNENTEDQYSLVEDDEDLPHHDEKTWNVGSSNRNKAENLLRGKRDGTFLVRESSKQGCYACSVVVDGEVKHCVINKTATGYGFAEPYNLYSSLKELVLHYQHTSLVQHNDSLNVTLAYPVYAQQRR
Protocol for PI3 Kinase α: Nunc 384 well black polypropylene fluorescent plates were used for PI3K assays. Reactions were quenched by the addition of EDTA to a final concentration of 10 μM. Final reaction volumes were 10 ml. […] Reactions were allowed to proceed for one hour at 25° C. After I hour, GST-tagged GRP1 (general receptor for phosphoinositides) PH domain fusion protein was added to a final concentration of 100 nM, and BODIPY-TMRI(1,3,4,5)P4 (Echelon) was also added to a final concentration of 5 nM. Final sample volumes were 25 μl with a final DMSO concentration of 0.8%. Assay Plates were read on PerkinElmer Envision plate readers with appropriate filters for Tamra [BODIPY-TMRI(1,3,4,5)P4]. Data obtained were used to calculate enzymatic activity and enzyme inhibition by inhibitor compounds.

Turning to `Cn1nnc2c(N3CCOCC3)nc(-c3ccc(NC(=O)Nc4cccnc4)cc3)nc21` [Example 199, 1-[4-(3-methyl-7-morpholin-4-yl-3H-[1,2,3]triazolo[4,5-d]pyrimidin-5-yl)phenyl]-3-pyridin-3-ylurea], the IC50 on PI3 Kinase α was 10.5 nM; on PI3 Kinase γ it was 49 nM.

Take `CN(C)CCNC(=O)c1cccc(-n2nnc3c(N4CCOCC4)nc(-c4cccc(O)c4)nc32)c1` [Example 122, N-[2-(dimethylamino)ethyl]-3-[5-(3-hydroxyphenyl)-7-morpholin-4-yl-3H-[1,2,3]triazolo[4,5-d]pyrimidin-3-yl]benzamide]: the results for the IC50 at PI3 Kinase α and against PI3 Kinase γ were 56.5 nM and 260 nM, respectively.

Turning to `CN(C)CCNC(=O)Nc1ccc(-c2nc(N3CCOCC3)c3nnn(C4CCN(Cc5ccc(Cl)cc5F)CC4)c3n2)cc1` [Example 156, 1-(4-(3-(1-(4-chloro-2-fluorobenzyl)piperidin-4-yl)-7-morpholino-3H-[1,2,3]triazolo[4,5-d]pyrimidin-5-yl)phenyl)-3-(2-(dimethylamino)ethyl)urea], the IC50 is 170 nM against PI3 Kinase α and 557 nM against PI3 Kinase γ.

As for `CCn1nnc2c(N3CCOC[C@@H]3C)nc(-c3ccc(NC(=O)Nc4ccc(OC)cc4)cc3)nc21` [Example 73, (S)-1-(4-(3-ethyl-7-(3-methylmorpholino)-3H-[1,2,3]triazolo[4,5-d]pyrimidin-5-yl)phenyl)-3-(4-methoxyphenyl)urea], the concentration for half-maximal inhibition (IC50) on PI3 Kinase α turned out to be 15.5 nM; against PI3 Kinase γ, 92.5 nM.

For `COC(Cn1nnc2c(N3CCOCC3)nc(-c3ccc(NC(=O)Nc4ccc(C(N)=O)cc4)cc3)nc21)OC` [Example 182, 4-[({4-[3-(2,2-dimethoxyethyl)-7-morpholin-4-yl-3H-[1,2,3]triazolo[4,5-d]pyrimidin-5-yl]phenyl}carbamoyl)amino]benzamide], the values for the IC50 at PI3 Kinase α and on PI3 Kinase γ were 4 nM and 27 nM, respectively.

Turning to `CC(=O)NCCNC(=O)c1ccc(Cn2nnc3c(N4CCOCC4)nc(-c4cccc(O)c4)nc32)cc1` [Example 210, N-(2-acetamidoethyl)-4-{[5-(3-hydroxyphenyl)-7-morpholin-4-yl-3H-[1,2,3]triazolo[4,5-d]pyrimidin-3-yl]methyl}benzamide], the IC50 on PI3 Kinase α is 692 nM; at PI3 Kinase γ, 782 nM.

Take `Oc1cncc(-c2nc(N3CCOCC3)c3nnn(C4CCN(Cc5ccc(F)cc5F)CC4)c3n2)c1` [Example 23, 5-{3-[1-(2,4-difluorobenzyl)piperidin-4-yl]-7-morpholin-4-yl-3H-[1,2,3]triazolo[4,5-d]pyrimidin-5-yl}pyridin-3-ol]: the IC50 was 68 nM at PI3 Kinase α and 44 nM against PI3 Kinase γ.

As for `CC(C)n1nnc2c(N3CCOCC3)nc(-c3ccc(NC(=O)Nc4cccnc4)cc3)nc21` [Example 83, 1-[4-(3-isopropyl-7-morpholin-4-yl-3H-[1,2,3]triazolo[4,5-d]pyrimidin-5-yl)-phenyl]-3-pyridin-3-yl-urea], the half-inhibitory concentration (IC50) was determined as 10.5 nM at PI3 Kinase α and 48.5 nM against PI3 Kinase γ.

Turning to `CCN1CCCC1CNC(=O)c1ccc(NC(=O)Nc2ccc(-c3nc(N4CCOCC4)c4nnn(CC)c4n3)cc2)cc1` (stereo not shown) [Example 59, 4-({[4-(3-ethyl-7-morpholin-4-yl-3H-[1,2,3]triazolo[4,5-d]pyrimidin-5-yl)phenyl]carbamoyl}amino)-N-[(1-ethylpyrrolidin-2-yl)methyl]benzamide], the IC50 at PI3 Kinase α was found to be 2.5 nM; against PI3 Kinase γ, 26 nM.

Turning to `COC(=O)c1ccc(Cn2nnc3c(N4CCOCC4)nc(-c4cccc(O)c4)nc32)cc1` [Example 241, methyl 4-{[5-(3-hydroxyphenyl)-7-morpholin-4-yl-3H-[1,2,3]triazolo[4,5-d]pyrimidin-3-yl]methyl}benzoate], the values for the IC50 on PI3 Kinase α and against PI3 Kinase γ were 630 nM and 4910 nM, respectively.

Regarding `Oc1cccc(-c2nc(N3CCOCC3)c3nnn(CCN4CCN(Cc5ccco5)CC4)c3n2)c1` [Example 113, 3-(3-{2-[4-(2-furylmethyl)piperazin-1-yl]ethyl}-7-morpholin-4-yl-3H-[1,2,3]triazolo[4,5-d]pyrimidin-5-yl)phenol], the IC50 turned out to be 726 nM against PI3 Kinase α and 3350 nM against PI3 Kinase γ.
